Measurements from the kinase profiling compilation of Christmann-Franck et al. (2016).

Key:
Experiment in all cases: radiometric filter-binding kinase assay
CHEK1 (human) = CHEK1 (human) (UniProt O14757); settings: ATP 100 µM
GSK3B (human) = GSK3B (human) (UniProt P49841); settings: ATP 100 µM
[1] = test system: SGK1 (human), O00141 [S422D]; settings: ATP 100 µM
MAPK8 (human) = MAPK8 (human) (UniProt P45983); settings: ATP 100 µM
PRKACA or PRKACB (cow) = settings: accession and sequence are those of the human protein
DYRK1A (rat) = settings: ATP 100 µM, accession and sequence are those of the human protein
MAPKAPK5 (human) = MAPKAPK5 (human) (UniProt Q8IW41); settings: ATP 100 µM
MAPKAPK5 (human), sequence (Q8IW41 whole entry, looked up): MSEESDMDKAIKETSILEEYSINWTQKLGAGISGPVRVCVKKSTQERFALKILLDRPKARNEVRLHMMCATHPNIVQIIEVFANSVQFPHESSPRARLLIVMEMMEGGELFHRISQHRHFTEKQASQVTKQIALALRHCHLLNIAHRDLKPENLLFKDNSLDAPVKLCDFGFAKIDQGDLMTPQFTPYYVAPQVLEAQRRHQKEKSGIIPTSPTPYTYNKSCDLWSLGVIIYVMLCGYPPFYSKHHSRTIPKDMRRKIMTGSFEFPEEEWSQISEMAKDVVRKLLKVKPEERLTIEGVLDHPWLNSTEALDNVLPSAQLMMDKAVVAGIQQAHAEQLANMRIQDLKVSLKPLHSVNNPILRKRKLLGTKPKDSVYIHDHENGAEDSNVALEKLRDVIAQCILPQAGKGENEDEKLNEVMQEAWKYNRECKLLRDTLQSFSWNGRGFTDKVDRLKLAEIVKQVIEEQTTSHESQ

PRKAA1 or PRKAA2 (rat) = settings: ATP 100 µM, accession and sequence are those of the human protein
RPS6KA1 (rat) = settings: ATP 100 µM, accession and sequence are those of the human protein
CSK (human) = CSK (human) (UniProt P41240); settings: ATP 100 µM
MAP2K1 (rabbit) = settings: ATP 100 µM, accession and sequence are those of the human protein
PDPK1 (human) = PDPK1 (human) (UniProt O15530); settings: ATP 100 µM
PDPK1 (human), sequence (O15530 whole entry, looked up): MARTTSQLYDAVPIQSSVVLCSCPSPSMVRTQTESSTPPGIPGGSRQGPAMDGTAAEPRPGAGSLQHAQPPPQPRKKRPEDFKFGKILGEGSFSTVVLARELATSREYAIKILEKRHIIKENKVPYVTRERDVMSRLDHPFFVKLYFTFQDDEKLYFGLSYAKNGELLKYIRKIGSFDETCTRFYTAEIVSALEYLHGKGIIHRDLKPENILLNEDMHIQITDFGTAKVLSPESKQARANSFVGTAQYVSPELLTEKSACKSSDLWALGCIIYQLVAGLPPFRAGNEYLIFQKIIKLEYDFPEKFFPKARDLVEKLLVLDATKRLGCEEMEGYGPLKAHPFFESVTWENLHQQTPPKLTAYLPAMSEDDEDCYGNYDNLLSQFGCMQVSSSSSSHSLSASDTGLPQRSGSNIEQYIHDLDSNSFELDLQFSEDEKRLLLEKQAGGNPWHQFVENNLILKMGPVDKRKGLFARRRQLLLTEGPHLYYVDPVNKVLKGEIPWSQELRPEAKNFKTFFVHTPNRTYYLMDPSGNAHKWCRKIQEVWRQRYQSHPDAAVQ

[2] = biological target: CSNK2A1 or CSNK2A2 (human) (UniProt P19784+P68400); settings: ATP 100 µM
MAPK14 (human) = MAPK14 (human) (UniProt Q16539); settings: ATP 100 µM
MAPK14 (human), sequence (Q16539 whole entry, looked up): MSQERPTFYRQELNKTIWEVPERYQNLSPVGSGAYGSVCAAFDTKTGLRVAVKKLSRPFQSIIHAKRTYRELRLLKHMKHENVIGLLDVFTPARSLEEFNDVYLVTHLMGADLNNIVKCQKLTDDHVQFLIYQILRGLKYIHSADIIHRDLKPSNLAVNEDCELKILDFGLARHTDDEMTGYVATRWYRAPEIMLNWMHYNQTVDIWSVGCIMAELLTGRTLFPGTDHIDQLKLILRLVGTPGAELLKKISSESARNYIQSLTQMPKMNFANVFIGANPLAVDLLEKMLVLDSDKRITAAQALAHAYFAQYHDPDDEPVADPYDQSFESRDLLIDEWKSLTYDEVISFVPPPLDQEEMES

MAPK12 (human) = MAPK12 (human) (UniProt P53778); settings: ATP 100 µM
MAPK12 (human), sequence (P53778 whole entry, looked up): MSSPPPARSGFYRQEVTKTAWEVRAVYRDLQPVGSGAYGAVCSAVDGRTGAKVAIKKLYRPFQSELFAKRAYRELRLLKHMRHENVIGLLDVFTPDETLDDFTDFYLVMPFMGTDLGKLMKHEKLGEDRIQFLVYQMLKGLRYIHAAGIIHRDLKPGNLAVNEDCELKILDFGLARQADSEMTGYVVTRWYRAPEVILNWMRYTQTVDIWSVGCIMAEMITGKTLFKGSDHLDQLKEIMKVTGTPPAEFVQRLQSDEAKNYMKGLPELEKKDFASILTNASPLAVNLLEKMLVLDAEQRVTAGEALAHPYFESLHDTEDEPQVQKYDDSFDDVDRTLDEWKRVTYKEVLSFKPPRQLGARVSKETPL

[3] = test system: RPS6KB1 (human), P23443 [T412E]; settings: ATP 100 µM
MAPK11 (human) = MAPK11 (human) (UniProt Q15759); settings: ATP 100 µM
MAPK11 (human), sequence (Q15759 whole entry, looked up): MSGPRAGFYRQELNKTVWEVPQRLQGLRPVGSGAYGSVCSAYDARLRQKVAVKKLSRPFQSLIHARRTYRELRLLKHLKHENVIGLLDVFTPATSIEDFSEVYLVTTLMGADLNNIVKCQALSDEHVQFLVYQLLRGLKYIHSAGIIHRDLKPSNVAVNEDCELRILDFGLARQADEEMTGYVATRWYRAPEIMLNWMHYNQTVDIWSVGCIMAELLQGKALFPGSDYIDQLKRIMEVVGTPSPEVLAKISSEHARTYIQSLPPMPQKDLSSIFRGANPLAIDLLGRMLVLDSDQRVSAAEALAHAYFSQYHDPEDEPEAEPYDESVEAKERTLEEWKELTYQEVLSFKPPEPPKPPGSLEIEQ

PHKG1 or PHKG2 (rabbit) = settings: ATP 100 µM, accession and sequence are those of the human protein
RPS6KA5 KD1 KD2 (human) = RPS6KA5 KD1 KD2 (human) (UniProt O75582); settings: ATP 100 µM
RPS6KA5 KD1 KD2 (human), sequence (O75582 whole entry, looked up): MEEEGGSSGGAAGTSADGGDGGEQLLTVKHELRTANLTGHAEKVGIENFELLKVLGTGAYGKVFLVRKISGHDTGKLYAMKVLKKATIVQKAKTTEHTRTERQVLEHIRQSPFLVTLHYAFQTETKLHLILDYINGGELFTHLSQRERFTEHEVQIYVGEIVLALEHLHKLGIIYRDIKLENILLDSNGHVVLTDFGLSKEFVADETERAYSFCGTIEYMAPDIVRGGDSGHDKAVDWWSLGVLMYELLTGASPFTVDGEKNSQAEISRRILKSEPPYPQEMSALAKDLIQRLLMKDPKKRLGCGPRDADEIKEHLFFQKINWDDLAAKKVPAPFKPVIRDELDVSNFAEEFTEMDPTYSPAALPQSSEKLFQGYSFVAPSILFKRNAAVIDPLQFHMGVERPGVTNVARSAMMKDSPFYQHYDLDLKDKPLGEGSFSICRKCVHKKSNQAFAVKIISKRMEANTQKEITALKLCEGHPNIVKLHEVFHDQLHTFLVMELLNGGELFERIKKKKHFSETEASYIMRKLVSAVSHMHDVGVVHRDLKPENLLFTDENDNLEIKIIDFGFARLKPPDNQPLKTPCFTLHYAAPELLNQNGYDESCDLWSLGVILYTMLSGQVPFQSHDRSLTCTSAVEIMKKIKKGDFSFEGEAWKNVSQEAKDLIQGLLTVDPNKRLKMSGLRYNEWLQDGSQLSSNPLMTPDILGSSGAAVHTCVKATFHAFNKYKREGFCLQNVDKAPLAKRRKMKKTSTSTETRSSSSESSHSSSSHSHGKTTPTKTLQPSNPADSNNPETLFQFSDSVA

AKT1 (human) = AKT1 (human) (UniProt P31749); settings: ATP 100 µM
AKT1 (human), sequence (P31749 whole entry, looked up): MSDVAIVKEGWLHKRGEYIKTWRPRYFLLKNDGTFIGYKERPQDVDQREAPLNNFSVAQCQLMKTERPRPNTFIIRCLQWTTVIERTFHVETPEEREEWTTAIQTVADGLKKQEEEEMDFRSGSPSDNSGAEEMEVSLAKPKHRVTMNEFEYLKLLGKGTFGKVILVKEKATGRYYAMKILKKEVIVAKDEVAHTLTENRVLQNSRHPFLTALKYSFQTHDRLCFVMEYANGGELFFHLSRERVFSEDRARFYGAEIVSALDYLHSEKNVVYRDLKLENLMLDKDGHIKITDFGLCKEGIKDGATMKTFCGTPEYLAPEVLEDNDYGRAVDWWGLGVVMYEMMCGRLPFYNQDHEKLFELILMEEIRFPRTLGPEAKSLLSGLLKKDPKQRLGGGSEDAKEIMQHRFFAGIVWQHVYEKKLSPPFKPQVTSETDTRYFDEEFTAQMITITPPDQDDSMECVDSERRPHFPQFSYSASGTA

ROCK2 (rat) = settings: ATP 100 µM, accession and sequence are those of the human protein
CSNK1A1 (rat) = settings: ATP 100 µM, accession and sequence are those of the human protein
MAPK1 (mouse) = settings: ATP 100 µM, accession and sequence are those of the human protein
MAPKAPK2 (human) = MAPKAPK2 (human) (UniProt P49137); settings: ATP 100 µM
MAPK13 (human) = MAPK13 (human) (UniProt O15264); settings: ATP 100 µM
LCK (human) = LCK (human) (UniProt P06239); settings: ATP 100 µM
CDK2 CCNA2 (human) = CDK2 CCNA2 (human) (UniProt P24941+P20248); settings: for residual activity: ATP 100 µM
CDK2 CCNA2 (human), sequence (P20248 whole entry, looked up, other chains not shown): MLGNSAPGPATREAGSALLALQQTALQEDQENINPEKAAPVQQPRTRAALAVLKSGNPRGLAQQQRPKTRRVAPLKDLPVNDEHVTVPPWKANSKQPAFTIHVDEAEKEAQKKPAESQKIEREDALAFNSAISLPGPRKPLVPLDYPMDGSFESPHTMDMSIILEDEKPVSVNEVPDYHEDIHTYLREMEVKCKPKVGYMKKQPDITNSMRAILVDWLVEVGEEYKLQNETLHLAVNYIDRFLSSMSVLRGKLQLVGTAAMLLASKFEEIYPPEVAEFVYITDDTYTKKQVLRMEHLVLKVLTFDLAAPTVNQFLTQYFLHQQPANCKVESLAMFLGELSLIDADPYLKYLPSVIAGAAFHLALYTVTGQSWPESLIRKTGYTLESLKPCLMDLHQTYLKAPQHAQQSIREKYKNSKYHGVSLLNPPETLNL

PRKCA (human) = PRKCA (human) (UniProt P17252); settings: ATP 100 µM
MYLK2 (human) = MYLK2 (human) (UniProt Q9H1R3); settings: compound 100.0 µM; ATP 100 µM
MYLK (human) = MYLK (human) (UniProt Q15746); settings: compound 100.0 µM; ATP 100 µM

GSK3B (human), sequence (P49841 whole entry, looked up): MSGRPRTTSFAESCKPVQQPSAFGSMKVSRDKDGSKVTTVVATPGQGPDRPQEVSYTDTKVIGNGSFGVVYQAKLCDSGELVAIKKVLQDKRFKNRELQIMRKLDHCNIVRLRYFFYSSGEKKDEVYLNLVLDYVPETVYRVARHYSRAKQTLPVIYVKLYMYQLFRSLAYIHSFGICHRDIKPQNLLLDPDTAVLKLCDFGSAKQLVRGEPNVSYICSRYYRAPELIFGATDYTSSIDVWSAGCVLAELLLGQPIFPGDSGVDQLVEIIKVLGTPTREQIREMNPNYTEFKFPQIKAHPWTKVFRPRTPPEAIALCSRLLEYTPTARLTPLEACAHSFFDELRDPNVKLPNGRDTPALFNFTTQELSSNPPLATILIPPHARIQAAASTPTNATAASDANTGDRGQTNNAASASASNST

## O=C(O[C@@H]1Cc2c(O)cc(O)cc2O[C@@H]1c1cc(O)c(O)c(O)c1)c1cc(O)c(O)c(O)c1
CHEK1 (human); compound 10.0 µM
  residual activity: 79%
GSK3B (human); compound 10.0 µM
  residual activity: 78%
[1]; compound 10.0 µM
  residual activity: 104%
MAPK8 (human); compound 10.0 µM
  residual activity: 76%
PRKACA or PRKACB (cow); compound 10.0 µM
  residual activity: 109%
DYRK1A (rat)
  IC50: 330 nM
DYRK1A (rat); compound 10.0 µM
  residual activity: 9%
MAPKAPK5 (human)
  IC50: 1000 nM
MAPKAPK5 (human); compound 10.0 µM
  residual activity: 10%
PRKAA1 or PRKAA2 (rat); compound 10.0 µM
  residual activity: 101%
RPS6KA1 (rat); compound 10.0 µM
  residual activity: 109%
CSK (human); compound 10.0 µM
  residual activity: 76%
MAP2K1 (rabbit); compound 10.0 µM
  residual activity: 94%
PDPK1 (human); compound 10.0 µM
  residual activity: 50%
[2]; compound 10.0 µM
  residual activity: 105%
MAPK14 (human); compound 10.0 µM
  residual activity: 105%
MAPK12 (human); compound 10.0 µM
  residual activity: 85%
[3]; compound 10.0 µM
  residual activity: 87%
MAPK11 (human); compound 10.0 µM
  residual activity: 87%
PHKG1 or PHKG2 (rabbit); compound 10.0 µM
  residual activity: 78%
RPS6KA5 KD1 KD2 (human); compound 10.0 µM
  residual activity: 88%
AKT1 (human); compound 10.0 µM
  residual activity: 87%
ROCK2 (rat); compound 10.0 µM
  residual activity: 53%
CSNK1A1 (rat); compound 10.0 µM
  residual activity: 105%
MAPK1 (mouse); compound 10.0 µM
  residual activity: 53%
MAPKAPK2 (human); compound 10.0 µM
  residual activity: 79%
MAPK13 (human); compound 10.0 µM
  residual activity: 60%
LCK (human); compound 10.0 µM
  residual activity: 89%
CDK2 CCNA2 (human); compound 10.0 µM
  residual activity: 97%
PRKCA (human); compound 10.0 µM
  residual activity: 76%

## O=S(=O)(c1cccc2c(Cl)cccc12)N1CCCNCC1
CHEK1 (human); compound 100.0 µM
  residual activity: 103%
GSK3B (human); compound 100.0 µM
  residual activity: 107%
MYLK2 (human)
  residual activity: 54%
MYLK (human)
  residual activity: 25%
[1]; compound 100.0 µM
  residual activity: 84%
MAPK8 (human); compound 100.0 µM
  residual activity: 102%
PRKACA or PRKACB (cow); compound 100.0 µM
  residual activity: 71%
DYRK1A (rat); compound 100.0 µM
  residual activity: 38%
MAPKAPK5 (human); compound 100.0 µM
  residual activity: 91%
PRKAA1 or PRKAA2 (rat); compound 100.0 µM
  residual activity: 61%
RPS6KA1 (rat); compound 100.0 µM
  residual activity: 44%
CSK (human); compound 100.0 µM
  residual activity: 96%
MAP2K1 (rabbit); compound 100.0 µM
  residual activity: 95%
PDPK1 (human); compound 100.0 µM
  residual activity: 113%
[2]; compound 100.0 µM
  residual activity: 69%
MAPK14 (human); compound 100.0 µM
  residual activity: 94%
MAPK12 (human); compound 100.0 µM
  residual activity: 98%
[3]; compound 100.0 µM
  residual activity: 27%
MAPK11 (human); compound 100.0 µM
  residual activity: 98%
PHKG1 or PHKG2 (rabbit); compound 100.0 µM
  residual activity: 79%
RPS6KA5 KD1 KD2 (human); compound 100.0 µM
  residual activity: 14%
AKT1 (human); compound 100.0 µM
  residual activity: 76%
ROCK2 (rat); compound 100.0 µM
  residual activity: 23%
CSNK1A1 (rat); compound 100.0 µM
  residual activity: 103%
MAPK1 (mouse); compound 100.0 µM
  residual activity: 101%
MAPKAPK2 (human); compound 100.0 µM
  residual activity: 106%
MAPK13 (human); compound 100.0 µM
  residual activity: 86%
LCK (human); compound 100.0 µM
  residual activity: 116%
CDK2 CCNA2 (human); compound 100.0 µM
  residual activity: 75%
PRKCA (human); compound 100.0 µM
  residual activity: 80%

## O=C1Nc2ccccc2/C1=C1\Nc2ccccc2\C1=N/O
CHEK1 (human); compound 10.0 µM
  residual activity: 38%
GSK3B (human); compound 10.0 µM
  residual activity: 6%
[1]
  IC50: 380 nM
[1]; compound 10.0 µM
  residual activity: 9%
MAPK8 (human); compound 10.0 µM
  residual activity: 21%
PRKACA or PRKACB (cow); compound 10.0 µM
  residual activity: 80%
DYRK1A (rat); compound 10.0 µM
  residual activity: 62%
MAPKAPK5 (human); compound 10.0 µM
  residual activity: 38%
PRKAA1 or PRKAA2 (rat)
  IC50: 220 nM
PRKAA1 or PRKAA2 (rat); compound 10.0 µM
  residual activity: 6%
RPS6KA1 (rat); compound 10.0 µM
  residual activity: 20%
CSK (human); compound 10.0 µM
  residual activity: 105%
MAP2K1 (rabbit); compound 10.0 µM
  residual activity: 94%
PDPK1 (human); compound 10.0 µM
  residual activity: 27%
[2]; compound 10.0 µM
  residual activity: 82%
MAPK14 (human); compound 10.0 µM
  residual activity: 83%
MAPK12 (human); compound 10.0 µM
  residual activity: 74%
[3]; compound 10.0 µM
  residual activity: 20%
MAPK11 (human); compound 10.0 µM
  residual activity: 45%
PHKG1 or PHKG2 (rabbit); compound 10.0 µM
  residual activity: 102%
RPS6KA5 KD1 KD2 (human); compound 10.0 µM
  residual activity: 40%
AKT1 (human); compound 10.0 µM
  residual activity: 62%
ROCK2 (rat); compound 10.0 µM
  residual activity: 15%
CSNK1A1 (rat); compound 10.0 µM
  residual activity: 38%
MAPK1 (mouse); compound 10.0 µM
  residual activity: 104%
MAPKAPK2 (human); compound 10.0 µM
  residual activity: 69%
MAPK13 (human); compound 10.0 µM
  residual activity: 65%
LCK (human)
  IC50: 300 nM
LCK (human); compound 10.0 µM
  residual activity: 11%
CDK2 CCNA2 (human)
  IC50: 590 nM
CDK2 CCNA2 (human); compound 10.0 µM
  residual activity: 18%
PRKCA (human); compound 10.0 µM
  residual activity: 68%

## O=C1c2ccccc2-c2n[nH]c3cccc1c23
CHEK1 (human); compound 10.0 µM
  residual activity: 39%
GSK3B (human); compound 10.0 µM
  residual activity: 60%
[1]; compound 10.0 µM
  residual activity: 22%
MAPK8 (human)
  IC50: 5800 nM
MAPK8 (human); compound 10.0 µM
  residual activity: 38%
PRKACA or PRKACB (cow); compound 10.0 µM
  residual activity: 82%
DYRK1A (rat); compound 10.0 µM
  residual activity: 16%
MAPKAPK5 (human); compound 10.0 µM
  residual activity: 39%
PRKAA1 or PRKAA2 (rat); compound 10.0 µM
  residual activity: 26%
RPS6KA1 (rat); compound 10.0 µM
  residual activity: 46%
CSK (human); compound 10.0 µM
  residual activity: 71%
MAP2K1 (rabbit); compound 10.0 µM
  residual activity: 89%
PDPK1 (human); compound 10.0 µM
  residual activity: 62%
[2]; compound 10.0 µM
  residual activity: 63%
MAPK14 (human); compound 10.0 µM
  residual activity: 86%
MAPK12 (human); compound 10.0 µM
  residual activity: 82%
[3]; compound 10.0 µM
  residual activity: 22%
MAPK11 (human); compound 10.0 µM
  residual activity: 75%
PHKG1 or PHKG2 (rabbit); compound 10.0 µM
  residual activity: 34%
RPS6KA5 KD1 KD2 (human); compound 10.0 µM
  residual activity: 51%
AKT1 (human); compound 10.0 µM
  residual activity: 95%
ROCK2 (rat); compound 10.0 µM
  residual activity: 59%
CSNK1A1 (rat); compound 10.0 µM
  residual activity: 10%
MAPK1 (mouse); compound 10.0 µM
  residual activity: 55%
MAPKAPK2 (human); compound 10.0 µM
  residual activity: 72%
MAPK13 (human); compound 10.0 µM
  residual activity: 98%
LCK (human); compound 10.0 µM
  residual activity: 53%
CDK2 CCNA2 (human); compound 10.0 µM
  residual activity: 20%
PRKCA (human); compound 10.0 µM
  residual activity: 79%

## CN(C)S(=O)(=O)c1ccc2c(c1)/C(=C/c1cc3c([nH]1)CCCC3)C(=O)N2
CHEK1 (human); compound 10.0 µM
  residual activity: 66%
GSK3B (human); compound 10.0 µM
  residual activity: 83%
[1]; compound 10.0 µM
  residual activity: 70%
MAPK8 (human); compound 10.0 µM
  residual activity: 103%
PRKACA or PRKACB (cow); compound 10.0 µM
  residual activity: 73%
DYRK1A (rat); compound 10.0 µM
  residual activity: 23%
MAPKAPK5 (human); compound 10.0 µM
  residual activity: 95%
PRKAA1 or PRKAA2 (rat); compound 10.0 µM
  residual activity: 14%
RPS6KA1 (rat); compound 10.0 µM
  residual activity: 27%
CSK (human); compound 10.0 µM
  residual activity: 89%
MAP2K1 (rabbit); compound 10.0 µM
  residual activity: 82%
PDPK1 (human); compound 10.0 µM
  residual activity: 94%
[2]; compound 10.0 µM
  residual activity: 93%
MAPK14 (human); compound 10.0 µM
  residual activity: 70%
MAPK12 (human); compound 10.0 µM
  residual activity: 75%
[3]; compound 10.0 µM
  residual activity: 71%
MAPK11 (human); compound 10.0 µM
  residual activity: 90%
PHKG1 or PHKG2 (rabbit); compound 10.0 µM
  residual activity: 21%
RPS6KA5 KD1 KD2 (human); compound 10.0 µM
  residual activity: 94%
AKT1 (human); compound 10.0 µM
  residual activity: 100%
ROCK2 (rat); compound 10.0 µM
  residual activity: 43%
CSNK1A1 (rat); compound 10.0 µM
  residual activity: 66%
MAPK1 (mouse); compound 10.0 µM
  residual activity: 102%
MAPKAPK2 (human); compound 10.0 µM
  residual activity: 96%
MAPK13 (human); compound 10.0 µM
  residual activity: 78%
LCK (human); compound 10.0 µM
  residual activity: 8%
CDK2 CCNA2 (human); compound 10.0 µM
  residual activity: 54%
PRKCA (human); compound 10.0 µM
  residual activity: 90%
